Test results published in patent US20140120087A1, “TRIAZOLOPYRIDINES” (BAYER INTELLECTUAL PROPERTY GMBH, priority 2011, published 2014).

How the values were obtained:
Mps-1 kinase [1] = biological target: T1, Mps-1 kinase (Homo sapiens, UniProt P33981); test: Mps-1 kinase assay with 2 mM ATP (TR-FRET)
T1 sequence (P33981 1-857): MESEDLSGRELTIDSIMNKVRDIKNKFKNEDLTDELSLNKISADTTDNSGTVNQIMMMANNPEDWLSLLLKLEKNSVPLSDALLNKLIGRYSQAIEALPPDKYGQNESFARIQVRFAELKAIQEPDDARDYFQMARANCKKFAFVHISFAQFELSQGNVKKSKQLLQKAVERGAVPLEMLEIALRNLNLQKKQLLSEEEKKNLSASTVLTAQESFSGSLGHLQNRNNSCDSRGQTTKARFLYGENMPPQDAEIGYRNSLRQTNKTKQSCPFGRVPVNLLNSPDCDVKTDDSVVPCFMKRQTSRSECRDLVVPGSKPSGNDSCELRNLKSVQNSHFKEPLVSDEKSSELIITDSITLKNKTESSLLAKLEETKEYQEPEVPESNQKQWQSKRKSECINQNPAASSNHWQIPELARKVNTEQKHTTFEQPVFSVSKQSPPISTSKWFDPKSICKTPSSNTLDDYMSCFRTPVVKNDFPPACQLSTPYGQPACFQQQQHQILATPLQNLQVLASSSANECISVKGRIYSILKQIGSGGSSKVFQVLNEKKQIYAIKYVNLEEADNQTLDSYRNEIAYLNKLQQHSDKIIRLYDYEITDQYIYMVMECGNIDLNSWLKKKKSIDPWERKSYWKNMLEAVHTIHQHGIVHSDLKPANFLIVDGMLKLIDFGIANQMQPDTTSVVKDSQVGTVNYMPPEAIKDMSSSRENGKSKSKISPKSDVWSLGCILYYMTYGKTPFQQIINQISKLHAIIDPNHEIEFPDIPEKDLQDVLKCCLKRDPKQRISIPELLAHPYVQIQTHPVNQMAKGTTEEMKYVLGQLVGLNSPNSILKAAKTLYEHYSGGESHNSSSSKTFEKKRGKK

[2] = Hydrolytic stability assay at pH 2; type: physicochemical; conditions: buffer pH 2, 37° C.
Experimental: The hydrolytic stability assay investigates the stability of a compound in an aqueous buffer system. Standard solution stability assay is run in 0.05 M Phosphate buffer at pH 7.4 (pH of blood plasma) at 37° C. As compounds in the GI tract are exposed to a wide variety of pHs any relevant pH (as pH 2 to simulate the acidic condition of the GI tract in the following experiment) can be chosen. Compounds are incubated in relevant solution at 37° C. and analyzed by HPLC immediately after incubation and after 1, 2 and 24 hrs. Degradation rate (decay in %) is calculated by relating peak areas after 1, 2 and 24 hrs to the time zero injection.
Compound is available as 10 mM in DMSO (solution 1). 2.5 μL of solution 1 is dissolved in 1 mL acetonitrile leading to solution 2. Poorly soluble compounds may demand another dilution step of solution 2 (1:5 and 1:10 respectively) in Acetonitrile). Solution 2 is incubated at 37° C. in a tempered HPLC autosampler. 1 mL buffer pH 2 is transferred into an HPLC vial. 100 μL of solution 2 is added to the buffer pH 2 solution and mixed thoroughly. Immediately after mixing the combined solution is injected into the HPLC to give the time zero injection. Injections are repeated after 1, 2 and 24 hrs.
The degradation rate (decay in %) is calculated using HPLC software Millennium and Excel respectively.

Mps-1 kinase [3] = biological target: T1, Mps-1 kinase; test: Mps-1 kinase assay with 10 μM ATP (TR-FRET)
[4] = comparison compounds specified in WO2011/063908

Row | Structure (SMILES) | IC50 (Mps-1 kinase [1]) [nM] | Hydrolysis at pH 2; Decay in % after 24 h ([2]; compounds of the invention) [%] | IC50 (Mps-1 kinase [3]) [nM] | Hydrolysis at pH 2; Decay in % after 24 h [2, 4]
1 | COc1cc(C(=O)NCCS(C)(=O)=O)ccc1Nc1nc2ccc(-c3ccc(C(=O)NCc4ccc(F)cc4)cc3)cn2n1 [Example 02.15, 4-[(6-{4-[(4-fluorobenzyl)carbamoyl]phenyl}[1,2,4]triazolo[1,5-α]pyridin-2-yl)amino]-3-methoxy-N-[2-(methylsulfonyl)ethyl]benzamide] | ≤ 1 | <10 | ≤ 1 | 
2 | CCCOc1cc(C(=O)N(CC)CC)ccc1Nc1nc2ccc(-c3ccc(NC(=O)Cc4ccc(F)cc4)cc3)cn2n1 [Example 01.23, N,N-diethyl-4-{[6-(4-{[(4-fluorophenyl)acetyl]amino}phenyl)[1,2,4]triazolo-[1,5-α]pyridin-2-yl]amino}-3-propoxybenzamide] | 1.1 | <10 | ≤ 1 | 
3 | Cc1ccc(C#N)c(Nc2nc3ccc(-c4ccc(NC(=O)Cc5ccccc5)cc4)cn3n2)c1 [Example 10, reference compound] |  |  | 2.1 | ≧70%
4 | N#Cc1c(F)cccc1Nc1nc2ccc(-c3ccc(NC(=O)Cc4ccccc4)cc3)cn2n1 [Example 2, reference compound] |  |  | ≤ 1 | ≧20%
5 | COc1cc(S(C)(=O)=O)ccc1Nc1nc2ccc(-c3ccc(NC(=O)Cc4ccc(F)cc4)cc3)cn2n1 [Example 01.15, 2-(4-fluorophenyl)-N-[4-(2-{[2-methoxy-4-(methylsulfonyl)phenyl]amino}-[1,2,4]triazolo[1,5-α]pyridin-6-yl)phenyl]acetamide] |  | <10 |  | 
6 | N#Cc1ccccc1Nc1nc2ccc(-c3ccc(NC(=O)Cc4cccc(F)c4)cc3)cn2n1 [Example 7, reference compound] |  |  | 1.1 | ≧70%
7 | COc1cc(C(=O)NC(C)(C)CO)ccc1Nc1nc2ccc(-c3ccc(C(=O)NCc4ccc(F)cc4)c(Cl)c3)cn2n1 [Example 05.1, 2-chloro-N-(4-fluorobenzyl)-4-[2-({4-[(1-hydroxy-2-methylpropan-2-yl)-carbamoyl]-2-methoxyphenyl}amino)[1,2,4]triazolo[1,5-α]pyridin-6-yl]-benzamide] |  | <10 | ≤ 1 | 
8 | N#Cc1ccccc1Nc1nc2ccc(-c3ccc(NC(=O)Cc4cccc(C(F)(F)F)c4)cc3)cn2n1 [Example 8, reference compound] |  |  | 1.4 | ≧70%
9 | N#Cc1ccccc1Nc1nc2ccc(-c3ccc(NC(=O)Cc4ccc(F)cc4)cc3)cn2n1 [Example 1, reference compound] |  |  |  | ≧90%
10 | COc1cccc(CC(=O)Nc2ccc(-c3ccc4nc(Nc5ccccc5C#N)nn4c3)cc2)c1 [Example 5, reference compound] |  |  | ≤ 1 | ≧70%
11 | N#Cc1ccccc1Nc1nc2ccc(-c3ccc(NC(=O)Cc4ccccc4)cc3)cn2n1 [Example 6, reference compound] |  |  |  | ≧90%
12 | COc1cc([S@@+](C)[O-])ccc1Nc1nc2ccc(-c3ccc(C(=O)NCc4ccc(F)cc4)cc3)cn2n1 (stereo in doubt) [Example 12.51, N-(4-fluorobenzyl)-4-(2-{[2-methoxy-4-(methylsulfinyl)-phenyl]amino}[1,2,4]-triazolo[1,5-a]pyridin-6-yl)-benzamide] | 2.6 |  | ≤ 1 | 
13 | CS(=O)(=O)c1ccc(Nc2nc3ccc(-c4ccc(NC(=O)Cc5ccc(F)cc5)cc4)cn3n2)c(F)c1 [Example 12.39, N-[4-(2-{[2-fluoro-4-(methylsulfonyl)phenyl]-amino}[1,2,4]triazolo[1,5-a]pyridin-6-yl)phenyl]-2-(4-fluorophenyl)acetamide] | 16 |  | ≤ 1 | 
14 | CS(=O)(=O)c1ccc(Nc2nc3ccc(-c4ccc(NC(=O)Cc5ccc(F)cc5)cc4)cn3n2)c(OC2CC2)c1 [Example 01.37, N-[4-(2-{[2-(cyclopropyloxy)-4-(methylsulfonyl)phenyl]amino}[1,2,4]-triazolo[1,5-α]pyridin-6-yl)phenyl]-2-(4-fluorophenyl)acetamide] | 1.6 |  | ≤ 1 | 
15 | COc1cc(C(N)=O)ccc1Nc1nc2ccc(-c3ccc(C(=O)NCc4ccc(F)cc4)cc3)cn2n1 [Example 12.43, 4-[(6-{4-[(4-fluorobenzyl)-carbamoyl]phenyl}[1,2,4]triazolo [1,5-a]pyridin-2-yl)-amino]-3-methoxy-benzamide] | ≤ 1 |  | ≤ 1 | 
16 | COc1cc(C(C)(C)O)ccc1Nc1nc2ccc(-c3ccc(C(=O)NCc4ccc(F)cc4)c(OC)c3)cn2n1 [Example 12.81, N-(4-fluorobenzyl)-4-(2-{[4-(2-hydroxypropan-2-yl)-2-methoxyphenyl]amino}-[1,2,4]triazolo[1,5-a]pyridin-6-yl)-2-methoxybenzamide] | 7.3 |  | ≤ 1 | 
17 | CCOc1cc(S(C)(=O)=O)ccc1Nc1nc2ccc(-c3ccc(C(=O)NCc4ccc(F)cc4)cc3)cn2n1 [Example 02.25, 4-(2-{[2-ethoxy-4-(methylsulfonyl)phenyl]amino}[1,2,4]triazolo[1,5-α]-pyridin-6-yl)-N-(4-fluorobenzyl)benzamide] | 3.3 |  | ≤ 1 | 
18 | CCOc1cc(C(=O)N(C)CC)ccc1Nc1nc2ccc(-c3ccc(C(=O)NCc4ccc(F)cc4)cc3)cn2n1 [Example 12.56, 3-ethoxy-N-ethyl-4-[(6-{4-[(4-fluorobenzyl)carbamoyl]phenyl}[1,2,4]triazolo[1,5-a]pyridin-2-yl)amino]-N-methylbenzamide] | ≤ 1 |  | ≤ 1 | 
19 | N#Cc1ccccc1Nc1nc2ccc(-c3ccc(NC(=O)Cc4ccccc4F)cc3)cn2n1 [Example 3, reference compound] |  |  | ≤ 1 | ≧70%
20 | COc1cc(S(C)(=O)=O)ccc1Nc1nc2ccc(-c3ccc(NC(=O)Cc4ccc(Cl)cc4)cc3)cn2n1 [Example 12.41, 2-(4-chlorophenyl)-N-[4-(2-{[2-methoxy-4-(methyl-sulfonyl)phenyl]amino}-[1,2,4]triazolo[1,5-a]pyridin-6-yl)phenyl]acetamide] | 7.2 |  | ≤ 1 | 
21 | CCNC(=O)c1ccc(Nc2nc3ccc(-c4ccc(C(=O)NCC5CC5)cc4)cn3n2)c(OCC)c1 [Example 06.1, 4-[(6-{4-[(cyclopropylmethyl)carbamoyl]phenyl}[1,2,4]triazolo[1,5-α]-pyridin-2-yl)amino]-3-ethoxy-N-ethylbenzamide] |  | <10 | ≤ 1 | 
22 | N#Cc1ccccc1Nc1nc2ccc(-c3ccc(NC(=O)Cc4ccc(F)c(F)c4)cc3)cn2n1 [Example 4, reference compound] |  |  | ≤ 1 | ≧70%
23 | Cc1cc(-c2ccc3nc(Nc4ccc(S(C)(=O)=O)cc4OCC(F)(F)F)nn3c2)ccc1C(=O)NCc1ccc(F)cc1F [Example 12.80, N-(2,4-difluorobenzyl)-2-methyl-4-(2-{[4-(methyl-sulfonyl)-2-(2,2,2-trifluoro-ethoxy)phenyl]amino}[1,2,4]triazolo[1,5-a]pyridin-6-yl)-benzamide] | 18 |  | ≤ 1 | 
24 | Cc1cc(C(N)=O)ccc1Nc1nc2ccc(-c3ccc(NC(=O)Cc4ccc(F)cc4)cc3)cn2n1 [Example 12.28, 4-{[6-(4-{[(4-fluorophenyl)-acetyl]amino}phenyl)[1,2,4]triazolo[1,5-a]pyridin-2-yl]amino}-3-methyl-benzamide] | ≤ 1 |  | ≤ 1 | 
